The subject of this experiment is BDF1 mice, L1210 6-MP/6-TG resistant leukemia ip, survival T/C. Nature of the experiment: NCI In Vivo Anticancer Drug Screen. Data for tumor model L1210 Leukemia resistant to 6-MP and 6-Thioguanine; NSC 755, NSC 752 (intraperitoneal) in B6D2F1 (BDF1) mice. Conditions: endpoint: mean survival time, higher = longer survival. The procedure: The antitumor activity of compounds was measured in mice bearing transplantable tumors. Survival or tumor size were measured and the results are expressed as the measurement made in the treated group (T) divided by the measurement made in the vehicle treated control group (C). The tumor model used in this assay is L1210 Leukemia resistant to 6-MP and 6-Thioguanine; NSC 755, NSC 752 (intraperitoneal) in B6D2F1 (BDF1) mice

Setting [1] is: dose: 62.5 mg/kg/injection, schedule: Q01DX Z (ip), vehicle: carboxymethylcellulose (CMC).
Where [2] appears, read: dose: 125.0 mg/kg/injection, schedule: Q01DX Z (ip), vehicle: carboxymethylcellulose (CMC).
[3] abbreviates: dose: 4.0 mg/kg/injection, schedule: Q01DX Z (ip), vehicle: carboxymethylcellulose (CMC).

Values joined by “and” are separate entries in the source; they are usually repeats but may differ in a detail not shown here. Equal values may be shown once. Inconclusive results and toxic doses are left out.

On to `c1nc(Sc2ncnc3nc[nH]c23)c2[nH]cnc2n1`, for which the T/C by setting is: (dose: 37.0 mg/kg/injection, schedule: Q01DX009 (ip), vehicle: other) 100 % of control; (dose: 75.0 mg/kg/injection, schedule: Q01DX009 (ip), vehicle: other) 107 % of control; (dose: 150.0 mg/kg/injection, schedule: Q01DX009 (ip), vehicle: other) 95 % of control; (dose: 300.0 mg/kg/injection, schedule: Q01DX009 (ip), vehicle: other) 91 % of control.

Regarding `OCC1OC(n2cnc3c(Cl)ncnc32)C(O)C1O` (stereo not given), the T/C is, setting by setting: under setting [1], 91 % of control; under setting [2], 89 % of control; (dose: 250.0 mg/kg/injection, schedule: Q01DX Z (ip), vehicle: carboxymethylcellulose (CMC)) 95 % of control; (dose: 500.0 mg/kg/injection, schedule: Q01DX Z (ip), vehicle: carboxymethylcellulose (CMC)) 95 % of control; (dose: 1000.0 mg/kg/injection, schedule: Q01DX001 (ip), vehicle: carboxymethylcellulose (CMC)) 92 % of control and 97 % of control; (dose: 1500.0 mg/kg/injection, schedule: Q01DX001 (ip), vehicle: carboxymethylcellulose (CMC)) 94 % of control and 99 % of control. The T/C (dose: 2000.0 mg/kg/injection, schedule: Q01DX001 (ip), vehicle: carboxymethylcellulose (CMC)) was 94 % of control and 97 % of control.

For `NC(=O)N(CCCl)N=O`, the T/C is 220 % of control (dose: 0.47 mg/kg/injection, schedule: Q01DX Z (ip), vehicle: saline); 265 % of control (dose: 0.93 mg/kg/injection, schedule: Q01DX Z (ip), vehicle: saline); 236 % of control (dose: 1.25 mg/kg/injection, schedule: Q01DX Z (ip), vehicle: saline); 158 % of control (dose: 1.87 mg/kg/injection, schedule: Q01DX Z (ip), vehicle: saline); 92 % of control (dose: 5.0 mg/kg/injection, schedule: Q01DX Z (ip), vehicle: saline).

For `O=c1[nH]cnc2c1nnn2C1OC(CO)C(O)C1O` (stereo not given), the T/C (dose: 50.0 mg/kg/injection, schedule: Q01DX009 (ip), vehicle: saline) is 111 % of control; the T/C (dose: 76.0 mg/kg/injection, schedule: Q01DX009 (ip), vehicle: saline) was 118 % of control; the T/C (dose: 114.0 mg/kg/injection, schedule: Q01DX009 (ip), vehicle: saline) was 156 % of control and 171 % of control; the T/C (dose: 256.0 mg/kg/injection, schedule: Q01DX009 (ip), vehicle: saline) is 112 % of control.

`N[C@@H](Cc1ccc(N(CCCl)CCCl)cc1)C(=O)O`: the T/C was 107 % of control under setting [3]; 122 % of control (dose: 6.0 mg/kg/injection, schedule: Q01DX Z (ip), vehicle: carboxymethylcellulose (CMC)); 119 % of control (dose: 8.0 mg/kg/injection, schedule: Q01DX Z (ip), vehicle: carboxymethylcellulose (CMC)); 122 % of control (dose: 12.0 mg/kg/injection, schedule: Q01DX Z (ip), vehicle: carboxymethylcellulose (CMC)).

With `Oc1cc(CN(CCCl)CCCl)c(O)cc1CN(CCCl)CCCl`, the T/C is, setting by setting: (dose: 0.5 mg/kg/injection, schedule: Q01DX Z (ip), vehicle: saline) 173 % of control; (dose: 2.0 mg/kg/injection, schedule: Q01DX Z (ip), vehicle: carboxymethylcellulose (CMC)) 153 % of control and 184 % of control; under setting [3], 102 % of control and 108 % of control.

Regarding `OCC1OC(n2cnc3c(=S)nc[nH]c32)CC1O` (stereo not given), the T/C was 98 % of control (dose: 62.0 mg/kg/injection, schedule: Q01DX015 (ip), vehicle: carboxymethylcellulose (CMC)); 96 % of control (dose: 125.0 mg/kg/injection, schedule: Q01DX015 (ip), vehicle: carboxymethylcellulose (CMC)); 93 % of control (dose: 250.0 mg/kg/injection, schedule: Q01DX015 (ip), vehicle: carboxymethylcellulose (CMC)).

For `C[C@@H]1C[C@H]2CC[C@H](O2)[C@H](C)C(=O)O[C@@H](C)C[C@@H]2CC[C@@H](O2)[C@@H](C)C(=O)O[C@H](C)C[C@H]2CC[C@H](O2)[C@H](C)C(=O)O[C@@H](C)C[C@@H]2CC[C@@H](O2)[C@@H](C)C(=O)O1`, the T/C is, setting by setting: (dose: 10.0 mg/kg/injection, schedule: Q01DX Z (ip), vehicle: other) 101 % of control; (dose: 15.0 mg/kg/injection, schedule: Q01DX Z (ip), vehicle: other) 101 % of control; (dose: 20.0 mg/kg/injection, schedule: Q01DX Z (ip), vehicle: other) 104 % of control; (dose: 30.0 mg/kg/injection, schedule: Q01DX Z (ip), vehicle: other) 94 % of control; (dose: 45.0 mg/kg/injection, schedule: Q01DX Z (ip), vehicle: carboxymethylcellulose (CMC)) 100 % of control; (dose: 90.0 mg/kg/injection, schedule: Q01DX Z (ip), vehicle: carboxymethylcellulose (CMC)) 93 % of control. Further, the T/C (dose: 180.0 mg/kg/injection, schedule: Q01DX Z (ip), vehicle: carboxymethylcellulose (CMC)) is 96 % of control and the T/C (dose: 360.0 mg/kg/injection, schedule: Q01DX Z (ip), vehicle: carboxymethylcellulose (CMC)) is 95 % of control.

Regarding `CN(C)C(=S)N=Nc1c(O)[nH]c2ccccc12`, the T/C runs as follows: (dose: 25.0 mg/kg/injection, schedule: Q01DX Z (ip), vehicle: carboxymethylcellulose (CMC)) 107 % of control; (dose: 50.0 mg/kg/injection, schedule: Q01DX Z (ip), vehicle: carboxymethylcellulose (CMC)) 105 % of control; (dose: 100.0 mg/kg/injection, schedule: Q01DX Z (ip), vehicle: carboxymethylcellulose (CMC)) 91 % of control.

Take `CSc1ncnc2nc[nH]c12`: the T/C is 89 % of control (dose: 30.0 mg/kg/injection, schedule: Q01DX015 (ip), vehicle: carboxymethylcellulose (CMC)); 97 % of control (dose: 31.0 mg/kg/injection, schedule: Q01DX Z (ip), vehicle: carboxymethylcellulose (CMC)); 103 % of control (dose: 45.0 mg/kg/injection, schedule: Q01DX015 (ip), vehicle: carboxymethylcellulose (CMC)); 88 % of control (dose: 60.0 mg/kg/injection, schedule: Q01DX015 (ip), vehicle: carboxymethylcellulose (CMC)); 92 % of control under setting [1]; 89 % of control (dose: 75.0 mg/kg/injection, schedule: Q01DX015 (ip), vehicle: carboxymethylcellulose (CMC)). Further, the T/C (dose: 90.0 mg/kg/injection, schedule: Q01DX015 (ip), vehicle: carboxymethylcellulose (CMC)) is 86 % of control; the T/C (dose: 120.0 mg/kg/injection, schedule: Q01DX001 (ip), vehicle: carboxymethylcellulose (CMC)) is 95 % of control and 104 % of control; the T/C under setting [2] is 88 % of control; the T/C (dose: 180.0 mg/kg/injection, schedule: Q01DX001 (ip), vehicle: carboxymethylcellulose (CMC)) was 92 % of control; the T/C (dose: 270.0 mg/kg/injection, schedule: Q01DX001 (ip), vehicle: carboxymethylcellulose (CMC)) is 94 % of control.

Regarding `C[C@@H]1C[C@@H]([C@H](O)CC2CC(=O)NC(=O)C2)C(=O)[C@@H](C)C1`, the T/C runs as follows: (dose: 0.93 mg/kg/injection, schedule: Q01DX Z (ip), vehicle: carboxymethylcellulose (CMC)) 101 % of control; (dose: 1.87 mg/kg/injection, schedule: Q01DX Z (ip), vehicle: carboxymethylcellulose (CMC)) 101 % of control; (dose: 3.75 mg/kg/injection, schedule: Q01DX Z (ip), vehicle: carboxymethylcellulose (CMC)) 100 % of control; (dose: 7.5 mg/kg/injection, schedule: Q01DX Z (ip), vehicle: carboxymethylcellulose (CMC)) 101 % of control; (dose: 7.5 mg/kg/injection, schedule: Q01DX Z (ip), vehicle: saline) 116 % of control; (dose: 15.0 mg/kg/injection, schedule: Q01DX Z (ip), vehicle: saline) 114 % of control. Moreover, the T/C is 112 % of control (dose: 30.0 mg/kg/injection, schedule: Q01DX Z (ip), vehicle: saline) and 92 % of control (dose: 60.0 mg/kg/injection, schedule: Q01DX Z (ip), vehicle: saline).

Regarding `COc1cc([C@@H]2c3cc4c(cc3[C@H](O)[C@H]3COC(=O)[C@@H]23)OCO4)cc(OC)c1OC`, the T/C reads like this: (dose: 10.0 mg/kg/injection, schedule: Q01DX Z (ip), vehicle: carboxymethylcellulose (CMC)) 124 % of control; (dose: 40.0 mg/kg/injection, schedule: Q01DX Z (ip), vehicle: carboxymethylcellulose (CMC)) 101 % of control.

For the molecule `CN(C)[C@@H]1C(=O)C(C(=O)NCc2nc3[nH]cnc(=S)c3[nH]2)=C(O)[C@@]2(O)C(=O)C3=C(O)c4c(O)cccc4[C@@](C)(O)[C@H]3C[C@@H]12`, the T/C is 105 % of control (dose: 50.0 mg/kg/injection, schedule: Q01DX009 (ip), vehicle: carboxymethylcellulose (CMC)); 104 % of control (dose: 100.0 mg/kg/injection, schedule: Q01DX009 (ip), vehicle: carboxymethylcellulose (CMC)); 93 % of control (dose: 400.0 mg/kg/injection, schedule: Q01DX009 (ip), vehicle: carboxymethylcellulose (CMC)).

For the origin of these results see PubChem BioAssay AID308 (DTP/NCI, 2004).
